This is an account of results in patent US20260176283A1, “IONIZABLE LIPIDS WITH LINEAR HEAD GROUPS” (Beam Therapeutics Inc., priority 2023, published 2026).

One data set relates to ALAS1 target site. The data set can be described thus: In vivo base editing with ABE mRNA and sgRNA targeting ALAS1. Further details: species or system Balb/c mice. The conditions noted are these: for Liver Editing A->G (%): formulation ratio 50:38.5:1.5:10, liver, 4 days after dosing; for Quadrecept Editing A->G (%): formulation ratio 50:38.5:1.5:10, quadricep muscle. The procedure:
(§1) Lipid nanoparticle components are dissolved in 100% ethanol at specified lipid component molar ratios. mRNA encoding an adenine base editor and a chemically-modified sgRNA is dissolved at a mass ratio of 1:1 in 10 mM citrate, 100 mM NaCl, pH 4.0, resulting in a concentration of NA cargo of approximately 0.22 mg/mL. LNP preparations are formulated with molar ratios of either 50% Ionizable Lipid: 38.5% Cholesterol: 1.5% PEG2000-DMG: 10% DSPC or 47.5% Ionizable Lipid: 40% Cholesterol: 2.5% PEG2000-DMG: 10% DSPC both at a total lipid to NA molar ratio of 6.
(§2) LNP preparations are formed by microfluidic mixing of the lipid and NA solutions using a Precision Nanosystems NanoAssemblr Ignite Instrument, according to the manufacturer's protocol. A 3:1 ratio of aqueous to organic solvent is maintained during mixing using differential flow rates. After mixing, LNP preparations are collected, diluted in PBS (approximately 2:1 v/v), and further buffer exchange is conducted using dialysis in PBS at 4° C. for 8 to 24 hours against a 20 kDa filter. After this initial dialysis, each individual LNP preparation is characterized via dynamic light scattering (DLS) to measure size and polydispersity. pKa of a subpopulation of LNP preparations is measured via TNS assay. After dialysis, LNP preparations are sterile filtered using 0.22 micron sterile filter and stored at 4° C. for further use. In some embodiments, LNP preparations may be concentrated using 100 kDa Amicon filters per manufacturer's protocol.
Male Balb/C mice aged approximately 8-12 weeks are used in the experiments described herein. Each mouse is temporarily restrained, and LNP preparations are administered IV via tail vein injection. Age-matched mice are also used to administer vehicle (1×PBS) via tail vein injection as a control. Four to six days post-dose, tissues including liver, spleen, heart and muscle are collected (only liver and muscle (quardracept) are reported). Genomic DNA is isolated and fragmented and adapter-ligated using the Nextera DNA Flex Library Prep Kit (Illumina) using the 96-well plate Nextera indexing primers (Illumina), according to the manufacturer's instructions. Library size and concentration is confirmed by Fragment Analyzer (Agilent) and sent to Novogene for whole genome sequencing using an Illumina HiSeq.
For base editing, mRNA encoding an adenine base editor (ABE) and a guide RNA (sgRNA) targeting ALAS1 at 1:1 (mass ratio) are coencapsulated in LNP preparations as described herein. LNP preparations are administrated into Balb/c mice through tail vein injections at concentrations ranging from 0.05 to 3.0 mg/kg total RNA. At 4 days after dosing, mice are euthanized and liver, spleen and bone barrow are harvested. Base editing is determined by performing targeted deep sequencing analysis at the ALAS1 target site using extracted genomic DNA.

The nature of data set [1]: LNP characterization of base editor LNP preparations (DLS diameter, PDI, encapsulation efficiency). It counts as physicochemical. The procedure: as §1, §2
DLS—LNP preparation hydrodynamic diameter and polydispersity index (PDI) is measured using high throughput dynamic light scattering (DLS) (DynaPro plate reader II, Wyatt). LNP preparations are diluted 1×PBS to an appropriate concentration and analyzed.
Concentration of NA is determined by Qubit microRNA kit (for siRNA) or HS RNA kit (for mRNA) per manufacturer's instructions. Encapsulation efficiency is determined by measuring unlysed and lysed LNPs.

The nature of data set [2]: LNP preparation characterization (encapsulation efficiency, DLS size and polydispersity), barcoded screen LNPs. It counts as physicochemical. Particulars: LNP 47.5% ionizable lipid: 40% cholesterol: 2.5% PEG-2000 DMG: 10% DPSC, N/P 4.5-6; for AVG PDI / AVG Z Dia (nm): DLS. The procedure:
Lipid nanoparticle components were dissolved in 100% ethanol at specified lipid component molar ratios. Nucleic acid (NA) cargo was dissolved in 10 mM citrate, 100 mM NaCl, pH 4.0, resulting in a concentration of NA cargo of approximately 0.22 mg/mL. In some embodiments, NA cargos included both a functional NA and a reporter barcode mixed at mass ratios of 1:10 to 10:1 functional NA to barcode. As described herein, a NA can be a siRNA, an anti-sense, an expressing DNA, or mRNA.
LNP preparations were prepared with 47.5% Ionizable Lipid (e.g., a compound provided herein): 40% cholesterol: 2.5% PEG-2000 DMG: 10% DPSC and an N/P ratio range of 4.5-6. LNP preparations were formed by microfluidic mixing of the lipid and NA solutions using Precision Nanosystems NanoAssemblr Spark or Benchtop series Instruments, according to the manufacturer's protocol.
A ratio of aqueous to organic solvent of approximately 2:1 or 3:1 was maintained during mixing using differential flow rates. After mixing, LNP preparations were collected, diluted in phosphate buffer saline (PBS) or Tris-buffered saline (TBS) (approximately 1:1 v/v). Further buffer exchange was conducted using dialysis in PBS or TBS at 4° C. for 4 to 24 hours against a 20 kDa filter. After this initial dialysis, each individual LNP preparation may be characterized via dynamic light scattering (DLS) to measure the size (e.g., diameter) and polydispersity. LNP preparations falling within specific diameter and polydispersity ranges were pooled, and further dialyzed against PBS or TBS at 4° C. for 1 to 4 hours against a 100 kDa dialysis cassette. After the second dialysis, LNP preparations were sterile filtered using 0.22 μm filter and stored at 4° C. for further use.

Where [3] appears, read: Table D LNPs, formulation ratio 50:38.5:1.5:10, ABE mRNA/ALAS1 sgRNA.
[4] abbreviates: Table C LNPs, formulation ratio 47.5:40:2.5:10, ABE mRNA/ALAS1 sgRNA.

SMILES strings stand for the structures. “And” between values parts separate entries of the source, which are not always exact repeats. Equal values may be shown once.

`C=CCCCCCCC(CCCCCCC=C)OC(=O)CCCCCC(=O)OCC(COC(=O)CCCCCC(=O)OC(CCCCCCC=C)CCCCCCC=C)COC(=O)CCCN1CCCC1` [Compound (4), 1-Heptadeca-1,16-dien-9-yl-7-[2-({[7-(heptadeca-1,16-dien-9-yloxy)-7-oxoheptanoyl]oxy}methyl)-3-{[4-(pyrrolidin-1-yl)butanoyl]oxy}propyl] heptanedioate]: in the data set with ALAS1 target site (dose 3 MPK IV), the “Liver Editing A->G (%)” value was determined as 64.7% and the “Quadrecept Editing A->G (%)” value is listed as 4.16%. For the same compound, in data set [1] (setting [3]), the “Diameter (nm)” value turned out to be 72.1 nm, the “EE (%)” value was determined as 99.03% and the “PDI (%)” value is recorded as 11%.
For `C=CCCCCCC(CCCCCC=C)OC(=O)CCCCCC(=O)OCC(COC(=O)CCCCCC(=O)OC(CCCCCC=C)CCCCCC=C)COC(=O)CCCN1CCCC1` [Compound (9), 1-[2-({[7-Oxo-7-(pentadeca-1,14-dien-8-yloxy)heptanoyl]oxy}methyl)-3-{[4-(pyrrolidin-1-yl)butanoyl]oxy}propyl] 7-pentadeca-1,14-dien-8-yl heptanedioate], in the data set with ALAS1 target site (dose 1.5 MPK IV), the “Liver Editing A->G (%)” value is reported as 90.8% and the “Quadrecept Editing A->G (%)” value came out at 8.22%. Further, in data set [1] (setting [3]), the “Diameter (nm)” value was 74.1 nm and 75.6 nm and 89.9 nm and 85.5 nm; the “EE (%)” value is 98.77% and 98.4% and 98.5% and 98.1%; the “PDI (%)” value was 12.2% and 9.7% and 8.1% and 9.8%.
Take `C=CCCCCCC(CCCCCC=C)OC(=O)CCCCCCC(=O)OCC(COC(=O)CCCCCCC(=O)OC(CCCCCC=C)CCCCCC=C)COC(=O)CCCN1CCCC1` [Compound (10), 1-[2-({[8-Oxo-8-(pentadeca-1,14-dien-8-yloxy)octanoyl]oxy}methyl)-3-{[4-(pyrrolidin-1-yl)butanoyl]oxy}propyl] 8-pentadeca-1,14-dien-8-yl octanedioate]: in the data set on ALAS1 target site (dose 3 MPK IV), the “Liver Editing A->G (%)” value is listed as 75.62% and the “Quadrecept Editing A->G (%)” value is listed as 3.6%. For the same compound, in data set [1] (setting [3]), the “Diameter (nm)” value was determined as 71.6 nm, the “EE (%)” value is recorded as 98.66% and the “PDI (%)” value turned out to be 11%.
Turning to `C=CCCCCCC(CCCCCC=C)OC(=O)CCCCC(=O)OCC(COC(=O)CCCCC(=O)OC(CCCCCC=C)CCCCCC=C)COC(=O)CCCN1CCCC1` [Compound (11), 1-[2-({[6-Oxo-6-(pentadeca-1,14-dien-8-yloxy)hexanoyl]oxy}methyl)-3-{[4-(pyrrolidin-1-yl)butanoyl]oxy}propyl]6-pentadeca-1,14-dien-8-yl hexanedioate], in the data set with ALAS1 target site (dose 3 MPK IV), the “Liver Editing A->G (%)” value worked out at 17.19% and the “Quadrecept Editing A->G (%)” value is 0.11%. Also, in data set [1] (setting [3]), the “Diameter (nm)” value was determined as 83.2 nm, the “EE (%)” value came to 74.33% and the “PDI (%)” value came to 18.7%.
Consider `CC/C=C\CCCC(CCC/C=C\CC)OC(=O)CCCCCC(=O)OCC(COC(=O)CCCCCC(=O)OC(CCC/C=C\CC)CCC/C=C\CC)COC(=O)CCCN1CCCC1` [Compound (14), 1-{2-[({7-Oxo-7-[(3Z,12Z)-pentadeca-3,12-dien-8-yloxy]heptanoyl}oxy)methyl]-3-{[4-(pyrrolidin-1-yl)butanoyl]oxy}propyl} 7-(3Z,12Z)-pentadeca-3,12-dien-8-yl heptanedioate], for which, in data set [1] (setting [3]), the “Diameter (nm)” value is 74.2 nm and 87.2 nm and 88.8 nm and 111.4 nm and 90.2 nm and 83.6 nm; the “EE (%)” value was 98.94% and 98.27% and 98.68% and 98.67% and 97.86% and 97.95%; the “PDI (%)” value is 11.6% and 9.6% and 11.5% and 8% and 11.4% and 10.2%.
For the compound `C=CCCCC(CCCC=C)COC(=O)CCCCC(=O)OCC(COC(=O)CCCCC(=O)OCC(CCCC=C)CCCC=C)COC(=O)CCCN1CCCC1` [Compound (19), 1-(2-{[(6-Oxo-6-{[2-(pent-4-en-1-yl)hept-6-en-1-yl]oxy}hexanoyl)oxy]methyl}-3-{[4-(pyrrolidin-1-yl)butanoyl]oxy}propyl) 6-[2-(pent-4-en-1-yl)hept-6-en-1-yl] hexanedioate], in data set [2], the “AVG EE(%)” value was found to be 98.2%, the “AVG PDI” value is 0.08 and the “AVG Z Dia (nm)” value came to 130.75 nm. In addition, in data set [1] (setting [4]), the “Diameter (nm)” value is given as 123 nm, the “EE (%)” value turned out to be 57.3% and the “PDI (%)” value was determined as 9.9%.
In the case of `O=C(CCCCC(=O)OC(CCCCCC(F)(F)F)CCCCCC(F)(F)F)OCC(COC(=O)CCCCC(=O)OC(CCCCCC(F)(F)F)CCCCCC(F)(F)F)COC(=O)CCCN1CCCC1` [Compound (20), 1-(1,1,1,13,13,13-Hexafluorotridecan-7-yl)6-{2-[({6-[(1,1,1,13,13,13-hexafluorotridecan-7-yl)oxy]-6-oxohexanoyl}oxy)methyl]-3-{[4-(pyrrolidin-1-yl)butanoyl]oxy}propyl} hexanedioate], in data set [1] (setting [4]), the “Diameter (nm)” value was 153.73 nm, the “EE (%)” value is 25% and the “PDI (%)” value is listed as 8.2%.
Turning to `C=CCCCCCC(CCCCCC=C)OC(=O)CCCCCC(=O)OCCCC(CCCOC(=O)CCCCCC(=O)OC(CCCCCC=C)CCCCCC=C)OC(=O)CCCN1CCCC1` [Compound (22), O1-[7-[7-(1-hept-6-enyloct-7-enoxy)-7-oxo-heptanoyl]oxy-4-(4-pyrrolidin-1-ylbutanoyloxy)heptyl] O7-(1-hept-6-enyloct-7-enyl) heptanedioate], in data set [2], the “AVG EE(%)” value is given as 88.1%, the “AVG PDI” value amounted to 0.07 and the “AVG Z Dia (nm)” value is 90.80 nm. Also, in data set [1] (setting [4]), the “Diameter (nm)” value was found to be 90.8 nm, the “EE (%)” value is 88.09% and the “PDI (%)” value is given as 6.8%.
Take `CC/C=C\CCCC(CCC/C=C\CC)COC(=O)CCCCC(=O)OCC(COC(=O)CCCCC(=O)OCC(CCC/C=C\CC)CCC/C=C\CC)COC(=O)CCCN1CCCC1` [Compound (24), 1-(6Z)-2-[(4Z)-Hept-4-en-1-yl]non-6-en-1-yl6-(2-{[(6-{[(6Z)-2-[(4Z)-hept-4-en-1-yl]non-6-en-1-yl]oxy}-6-oxohexanoyl)oxy]methyl}-3-{[4-(pyrrolidin-1-yl)butanoyl]oxy}propyl) hexanedioate]: in data set [2], the “AVG EE(%)” value is given as 90.2%, the “AVG PDI” value is 0.13 and the “AVG Z Dia (nm)” value was 117.63 nm.
